Results: US6515025B2, “Use of ethynyl alanine amino diol compounds to inhibit enzymatic conversion of angiotensinogen to angiotensin I” (Pharmacia Corporation, priority 1991, dated 2003)
Like-named read-outs stand apart in the source and are kept apart here.

Legend:
[1] = Oral bioavailability studies in dogs (plasma concentration by bioassay); type: in vivo; details: dog, plasma
Method: The bioavailability in marmosets and dogs was determined by sampling the blood via the femoral vein at various time points after administering the renin inhibitor compounds of the invention in polyethylene glycol 400 at an intragastric dose of 10 mg/kg or at an intravenous dose of 1 mg/kg. Compound concentration in plasma was determined using the bioassay technique described below. The percent bioavailability was calculated by dividing the area under the concentration-vs.-time curve obtained from the intragastric experiment by the area under the concentration-vs.-time curve obtained from the intravenous experiment (adjusting for different doses), and multiplying the result by 100%. The bioavailibility of Example 1 compound is 27% in marmosets and 33% in dogs.
Renin inhibitor plasma concentrations were determined by a bioassay. The plasma samples were extracted with acetonitrile and the extract was evaporated to dryness under nitrogen. Residue was dissolved in 4% bovine serum albumin containing 0.9% NaCl and 5% EDTA. The dissolved residue (0.1 ml) was incubated with a reaction mixture containing human plasma (0.12 ml), 5% phenylmethysulfonylfluoride (1.2 ul), 10% neomycin (2.4 ul), 0.5 M TES buffer (pH 7.4, 24 ul), and 0.6 mU/ml recombinant human renin (1000 U/mg, 50 ul) at 37° C. for 90 minutes. The renin activity was determined by a standard angiotensin I radioimmunoassay (New England Nuclear Corp.). The amount of test compound in the plasma was determined by comparing the extent of inhibition of renin activity with that produced by a known amount of test compound added to plasma and analyzed above.

renin (human plasma) = target: T1, renin (human plasma) (Homo sapiens, UniProt P00797); test: Renin inhibitor species specificity, human plasma renin activity; type: biochemical
T1 construct: the animal plasma is the source of both the renin substrate and the renin enzyme; from tissue
T1 sequence (P00797 67-406): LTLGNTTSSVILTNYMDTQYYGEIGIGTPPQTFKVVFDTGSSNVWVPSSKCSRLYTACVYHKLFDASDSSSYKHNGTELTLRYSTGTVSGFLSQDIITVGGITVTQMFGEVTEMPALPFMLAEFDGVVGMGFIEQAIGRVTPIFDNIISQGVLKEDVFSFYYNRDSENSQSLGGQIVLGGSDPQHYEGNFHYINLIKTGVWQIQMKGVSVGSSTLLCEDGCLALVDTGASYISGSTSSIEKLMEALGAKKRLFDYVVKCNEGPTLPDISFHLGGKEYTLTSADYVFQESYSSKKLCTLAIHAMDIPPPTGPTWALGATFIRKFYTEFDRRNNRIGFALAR
Method: Blood was collected in a 10 ml Becton Dickinson vacutainer tube with 0.1 ml of 15% EDTA (K3) solution (15 mg) from normal animals or high renin animals; i.e., those pre-treated with 5 mg/kg of Lasix® intramuscularly 2 times within a 6 hour interval 24 hours prior to bleeding. The blood was then centrifuged at 2500 RPM for 20 minutes and the plasma from the various species respectively pooled, aliquoted and stored in the freezer. The human plasma source was taking a prescription of an angiotensin converting enzyme inhibitor.
The plasma renin activity assay is a modification of the human renin inhibition test in that the animal plasma is the source of both the renin substrate and the renin enzyme. In a total volume of 0.1 ml, 90 mM Tris-acetate buffer, pH 7.5, 12 mM sodium EDTA, 0.012 mg/ml neomycin sulfate, 0.9 mg/ml bovine serum albumin, 1.61 mM phenylmethyl sulfonyl fluoride, 4 mM 8-hydroxyquinoline and 0.09 ml of the animal or human plasmas were incubated for 2 hours at 37° C. in a shaking water bath or at 4° C. in an ice bath in the presence or absence of renin inhibitors. The produced angiotensin I was determined by radioimmunoassay (New England Nuclear kit).
The amount of angiotensin I generated during the 2 hours at 4° C. was usually less than 5% of that activity produced at 37° C.; however, the 4° C. background values were nevertheless subtracted from the 37° C. ones for the 100% activity values. The renin inhibitors were assayed in duplicate using 5 concentrations and the data is expressed as a percent of the 100% total renin activity.

[2] = iv, 1 mg/kg, IV at 1 mg/kg, read-out: Estimated Plasma Concentration, Mean ± SE
[3] = iv, 1 mg/kg, IV at 1 mg/kg, individual animals, read-out: Estimated Plasma Concentration
[4] = oral, 10 mg/kg, IG at 10 mg/kg, read-out: Estimated Plasma Concentration, Mean ± SE
[5] = oral, 10 mg/kg, IG at 10 mg/kg, individual animals, read-out: Estimated Plasma Concentration

C#CC[C@H](NC(=O)C(CC(=O)N(C)CCN(C)C)Cc1ccccc1)C(=O)NC(CC1CCCCC1)[C@@H](O)C(O)CC(C)C (relative stereo) [Example 1, N1-[1R*-[[[1S,1R*-(cyclohexylmethyl)-2S*,3R*-dihydroxy-5-methylhexyl]amino]carbonyl]-3-butynyl]-N4-[2-(dimethylamino)ethyl]-N4-methyl-2S*-(phenylmethyl)butanediamide]
concentration at 15 min [1, 2]: 170 ± 24.1 ng/mL | concentration at 30 min [1, 3]: 145 ng/mL | concentration at 30 min [1, 2]: 123 ± 12.1 ng/mL | concentration at 1 h [1, 3]: 70.4 ng/mL | concentration at 1 h [1, 2]: 62.7 ± 6.4 ng/mL | concentration at 2 h [1, 3]: 48.8 ng/mL | concentration at 2 h [1, 2]: 58.2 ± 6.2 ng/mL | concentration at 4 h [1, 3]: 18.6 ng/mL | concentration at 4 h [1, 2]: 21.9 ± 1.6 ng/mL | concentration at 6 h [1, 3]: 10.1 ng/mL | concentration at 6 h [1, 2]: 11.3 ± 1.1 ng/mL | concentration at 8 h [1, 3]: 6.4 ng/mL | concentration at 8 h [1, 2]: 5.8 ± 0.5 ng/mL | concentration at 24 h [1, 3]: 2.5 ng/mL | concentration at 24 h [1, 2]: 1.8 ± 0.4 ng/mL | concentration at 15 min [1, 4]: 128 ± 77.2 ng/mL | concentration at 30 min [1, 4]: 564 ± 158 ng/mL | concentration at 1 h [1, 5]: 678 ng/mL | concentration at 1 h [1, 4]: 799 ± 60.5 ng/mL | concentration at 2 h [1, 5]: 599 ng/mL | concentration at 2 h [1, 4]: 502 ± 75.8 ng/mL | concentration at 4 h [1, 5]: 123 ng/mL | concentration at 4 h [1, 4]: 110 ± 20.9 ng/mL | concentration at 6 h [1, 5]: 66.9 ng/mL | concentration at 6 h [1, 4]: 62.1 ± 7.7 ng/mL | concentration at 8 h [1, 5]: 33.5 ng/mL | concentration at 8 h [1, 4]: 34.8 ± 5.8 ng/mL | concentration at 24 h [1, 5]: 6.2 ng/mL | concentration at 24 h [1, 4]: 7.5 ± 0.7 ng/mL | bioavailability ([1]; oral, dogs, IG 10 mg/kg vs IV 1 mg/kg): 33% | Vd ([1]; read-out: Vd, Mean ± SE): 9.5 ± 1 L/kg | half-life ([1]; read-out: t1/2, Mean ± SE (converted)): 4.7 ± 0.3 h | % of Total Renin Activity (renin (human plasma); 1 nM): 90% | % of Total Renin Activity (renin (human plasma); 4 nM): 50% | % of Total Renin Activity (renin (human plasma); 16 nM): 10%
